From ChEMBL document CHEMBL1201862, “PubChem BioAssay data set” (2004)
Calls of active or inactive are those of the source.

Tests used:
[1] = molecular target: FAD-linked sulfhydryl oxidase ALR (Homo sapiens, UniProt P55789); experiment: ALR-catalysed DTT oxidation blockers – biochemical, H2O2 detection, luminescence, cherry-pick, dose response (AID 493248)
[2] = molecular target: DNA dC->dU-editing enzyme APOBEC-3G (Homo sapiens, UniProt Q9HC16); experiment: Dose Response confirmation of small molecule APOBEC3G DNA Deaminase Inhibitors via a fluorescence-based single-stranded DNA deaminase assay. [Related pubchem assays (depositor defined):AID493012, AID493028]; assay type: functional
Chain of DNA dC->dU-editing enzyme APOBEC-3G (Q9HC16 whole entry): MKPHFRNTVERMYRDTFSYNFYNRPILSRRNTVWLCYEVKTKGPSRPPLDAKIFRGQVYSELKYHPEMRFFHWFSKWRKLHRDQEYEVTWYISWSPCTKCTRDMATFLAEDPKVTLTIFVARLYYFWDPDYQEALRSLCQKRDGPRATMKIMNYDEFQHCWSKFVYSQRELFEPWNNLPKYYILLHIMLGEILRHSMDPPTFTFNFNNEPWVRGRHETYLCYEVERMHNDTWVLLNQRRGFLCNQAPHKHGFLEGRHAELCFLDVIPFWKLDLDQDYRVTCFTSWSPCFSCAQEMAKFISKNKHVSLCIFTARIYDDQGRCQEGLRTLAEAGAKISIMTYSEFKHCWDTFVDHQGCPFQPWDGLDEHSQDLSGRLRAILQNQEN

Coagulation factor XII = molecular target: T1, Coagulation factor XII (Homo sapiens, UniProt P00748); assay type: functional;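 further: activated factor XIIa alpha cleaving a fluorogenic AMC peptide substrate; inhibitor potency from loss of enzyme activity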
T1 sequence (P00748 whole entry): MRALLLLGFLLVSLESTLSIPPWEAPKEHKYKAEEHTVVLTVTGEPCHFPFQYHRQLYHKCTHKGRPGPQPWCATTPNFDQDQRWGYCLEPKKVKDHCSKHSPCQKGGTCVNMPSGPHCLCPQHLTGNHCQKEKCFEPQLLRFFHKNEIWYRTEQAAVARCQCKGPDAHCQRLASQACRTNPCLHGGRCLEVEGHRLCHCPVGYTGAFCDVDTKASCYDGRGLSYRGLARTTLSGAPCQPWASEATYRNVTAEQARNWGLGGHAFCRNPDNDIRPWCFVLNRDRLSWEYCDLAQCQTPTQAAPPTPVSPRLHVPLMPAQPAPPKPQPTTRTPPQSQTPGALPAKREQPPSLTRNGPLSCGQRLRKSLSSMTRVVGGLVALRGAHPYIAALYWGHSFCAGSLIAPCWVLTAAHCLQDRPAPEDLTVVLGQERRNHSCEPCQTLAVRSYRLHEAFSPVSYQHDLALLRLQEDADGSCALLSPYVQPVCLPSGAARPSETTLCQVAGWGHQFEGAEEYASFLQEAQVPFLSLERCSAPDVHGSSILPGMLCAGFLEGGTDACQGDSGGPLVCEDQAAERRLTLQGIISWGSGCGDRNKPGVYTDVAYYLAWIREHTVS

[3] = molecular target: T2, Long-chain-fatty-acid--AMP ligase FadD28 (Mycobacterium tuberculosis, UniProt P9WQ59); experiment: Fluorescence polarization aasay to screen for inhibitors that compete for the binding of FadD28 to a bisubstrate Measured in Biochemical System Using Plate Reader - 2147-01_Inhibitor_Dose_CherryPick_Activity.; assay type: functional, Mycobacterium tuberculosis H37Rv
T2 sequence (P9WQ59 whole entry): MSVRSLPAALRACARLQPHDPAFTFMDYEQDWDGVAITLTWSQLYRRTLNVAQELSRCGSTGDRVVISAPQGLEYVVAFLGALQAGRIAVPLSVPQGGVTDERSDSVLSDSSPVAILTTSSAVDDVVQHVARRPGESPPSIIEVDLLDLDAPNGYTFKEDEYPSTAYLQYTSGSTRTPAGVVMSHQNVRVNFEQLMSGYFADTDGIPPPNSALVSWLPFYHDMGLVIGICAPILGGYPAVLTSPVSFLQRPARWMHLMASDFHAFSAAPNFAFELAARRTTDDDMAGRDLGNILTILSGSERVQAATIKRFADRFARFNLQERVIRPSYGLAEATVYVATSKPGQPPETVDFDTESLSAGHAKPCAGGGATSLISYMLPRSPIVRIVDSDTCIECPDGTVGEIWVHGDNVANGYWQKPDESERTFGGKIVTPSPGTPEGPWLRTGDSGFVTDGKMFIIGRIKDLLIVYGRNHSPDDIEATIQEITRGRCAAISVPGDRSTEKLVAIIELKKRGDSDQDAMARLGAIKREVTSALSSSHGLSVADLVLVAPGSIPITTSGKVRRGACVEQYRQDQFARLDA

[4] = A cytotoxicity screen of small molecule inhibitors of the PhoP region in Salmonella typhi identified in the primary screen. [Related pubchem assays: 1850, 1864, 1985 ]; assay type: functional
[5] = molecular target: T3, Carboxy-terminal domain RNA polymerase II polypeptide A small phosphatase 1 (Homo sapiens, UniProt Q9GZU7); experiment: CTDSP1 inhibitors, concentration-response, biochemical, absorbance readout, ultra-high-throughput screen actives (AID 540297); assay type: functional
T3 sequence (Q9GZU7 whole entry): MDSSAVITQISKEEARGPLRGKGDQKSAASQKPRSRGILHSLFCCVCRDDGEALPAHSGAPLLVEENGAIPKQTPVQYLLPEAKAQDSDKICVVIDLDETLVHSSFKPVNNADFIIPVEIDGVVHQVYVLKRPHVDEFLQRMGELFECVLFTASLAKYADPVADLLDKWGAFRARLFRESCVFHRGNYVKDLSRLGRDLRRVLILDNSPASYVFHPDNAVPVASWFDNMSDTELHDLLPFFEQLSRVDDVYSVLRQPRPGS

[6] = HEK-293T viability loss after treatment – luminescence, T-cell screen hits, cytotoxicity control for TCR NF-kB inhibitor project, dose response (AID 489026); assay type: functional, cell-based;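 further: cells exposed to compound about 14 hours before the viability readout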
BJ [7] = experiment: BJ-TERT-LT-ST fibroblast viability loss – cell-based, RAS-independent, luminescence, dose response (AID 1935); assay type: functional; conditions: Homo sapiens;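 further: BJ fibroblasts immortalized with TERT plus LT and ST oncogenes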
[8] = DRD fibroblast viability loss – cell-based, non-viral oncogenic, luminescence, dose response (AID 1934); assay type: functional; conditions: Homo sapiens
BJ [9] = experiment: BJ-TERT fibroblast viability loss – cell-based, RAS-independent, luminescence, dose response (AID 1933); assay type: functional; conditions: Homo sapiens
BJ [10] = experiment: cells; assay type: functional, cell-based; conditions: Homo sapiens
Protein skinhead-1 = molecular target: T4, Protein skinhead-1 (Caenorhabditis elegans, UniProt P34707); assay type: functional
T4 sequence (P34707 whole entry): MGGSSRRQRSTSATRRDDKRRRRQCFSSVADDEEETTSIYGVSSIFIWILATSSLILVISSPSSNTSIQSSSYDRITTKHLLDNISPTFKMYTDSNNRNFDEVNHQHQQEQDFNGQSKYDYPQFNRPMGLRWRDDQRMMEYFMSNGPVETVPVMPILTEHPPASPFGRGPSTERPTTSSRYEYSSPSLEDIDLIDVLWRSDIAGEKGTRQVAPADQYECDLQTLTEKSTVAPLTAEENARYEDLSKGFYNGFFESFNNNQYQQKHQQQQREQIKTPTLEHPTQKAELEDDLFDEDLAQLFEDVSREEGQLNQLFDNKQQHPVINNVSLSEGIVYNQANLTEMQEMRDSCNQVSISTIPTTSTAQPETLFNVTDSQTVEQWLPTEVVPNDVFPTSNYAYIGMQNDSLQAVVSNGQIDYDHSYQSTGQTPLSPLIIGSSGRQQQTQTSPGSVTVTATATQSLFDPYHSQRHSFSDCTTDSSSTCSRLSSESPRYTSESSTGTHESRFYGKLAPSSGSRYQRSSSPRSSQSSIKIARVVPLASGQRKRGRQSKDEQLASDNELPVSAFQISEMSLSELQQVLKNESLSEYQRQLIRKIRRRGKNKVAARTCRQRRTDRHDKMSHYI

[11] = luciferase reporter signal suppression in cells – H4 neuroglioma cells, luminescence, dose response (AID 1990); assay type: functional, cell-based
[12] = alpha-synuclein stem-loop luciferase translation blockers – H4 neuroglioma cells, luminescence, confirmation (AID 1988); assay type: functional, cell-based
[13] = Luminescence Cell-Based Dose Response HTS to Identify Inhibitors of 5'UTR Stem-Loop Driven Prion Protein mRNA Translation in H4 Neuroglioblastoma Cells. [Related pubchem assays: 1827 (Project Summary), 1813 (Primary HTS)]; assay type: functional
[14] = molecular target: T5, Heat shock factor protein 1 (Mus musculus, UniProt P38532); experiment: decrease of HSF1-responsive luciferase luminescence – cell-based, NIH3T3, dose retest, confirmation (AID 2382); assay type: functional;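 further: NIH3T3 fibroblasts with HSF1-driven luciferase reporter stressed by proteasome inhibitor MG132; luminescence from HSF1-driven luciferase expression after 8 hours of MG132 stress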
T5 sequence (P38532 whole entry): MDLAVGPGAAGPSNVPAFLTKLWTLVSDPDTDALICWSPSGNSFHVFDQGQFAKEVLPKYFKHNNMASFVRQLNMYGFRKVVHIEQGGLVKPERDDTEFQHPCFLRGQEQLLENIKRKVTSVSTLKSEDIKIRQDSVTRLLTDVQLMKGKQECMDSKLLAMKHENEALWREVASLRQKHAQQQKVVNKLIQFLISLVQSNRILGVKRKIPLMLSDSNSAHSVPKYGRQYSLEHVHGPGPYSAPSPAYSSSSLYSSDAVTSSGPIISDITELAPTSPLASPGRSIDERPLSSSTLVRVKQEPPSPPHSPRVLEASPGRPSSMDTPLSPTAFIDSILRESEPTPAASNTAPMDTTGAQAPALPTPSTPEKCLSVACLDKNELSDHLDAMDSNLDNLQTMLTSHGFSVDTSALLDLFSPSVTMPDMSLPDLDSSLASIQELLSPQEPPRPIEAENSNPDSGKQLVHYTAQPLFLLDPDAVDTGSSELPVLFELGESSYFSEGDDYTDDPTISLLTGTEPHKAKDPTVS

[15] = molecular target: T6, Adenosylmethionine-8-amino-7-oxononanoate aminotransferase (Mycobacterium tuberculosis, UniProt P9WQ81); experiment: Mycobacterium tuberculosis BioA enzyme inhibitor Measured in Biochemical System Using Plate Reader - 2163-02_Inhibitor_Dose_CherryPick_Activity.; assay type: functional, Mycobacterium tuberculosis UT205
T6 sequence (P9WQ81 whole entry): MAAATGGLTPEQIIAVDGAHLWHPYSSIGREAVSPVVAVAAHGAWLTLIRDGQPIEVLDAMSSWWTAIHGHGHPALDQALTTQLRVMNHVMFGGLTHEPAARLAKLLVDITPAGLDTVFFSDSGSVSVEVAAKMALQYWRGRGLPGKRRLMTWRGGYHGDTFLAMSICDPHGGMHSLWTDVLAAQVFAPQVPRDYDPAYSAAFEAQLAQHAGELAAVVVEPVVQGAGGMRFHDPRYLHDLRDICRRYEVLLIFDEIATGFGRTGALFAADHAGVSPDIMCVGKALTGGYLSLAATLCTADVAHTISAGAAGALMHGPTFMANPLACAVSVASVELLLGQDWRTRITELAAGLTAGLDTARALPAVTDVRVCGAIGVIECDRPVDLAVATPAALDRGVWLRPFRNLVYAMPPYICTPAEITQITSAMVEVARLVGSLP

[16] = molecular target: T7, Hepatocyte nuclear factor 4-alpha (Homo sapiens, UniProt P41235); assay type: functional, cell-based;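 further: biochemical luminescence-based dose-response counterscreen measuring inhibition of HNF4 dimerization, run alongside a screen for blockers of ABHD5–perilipin-5 interaction; split luciferase complementation of HNF4 fusion proteins in cell lysate measuring dimerization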
T7 sequence (P41235 whole entry): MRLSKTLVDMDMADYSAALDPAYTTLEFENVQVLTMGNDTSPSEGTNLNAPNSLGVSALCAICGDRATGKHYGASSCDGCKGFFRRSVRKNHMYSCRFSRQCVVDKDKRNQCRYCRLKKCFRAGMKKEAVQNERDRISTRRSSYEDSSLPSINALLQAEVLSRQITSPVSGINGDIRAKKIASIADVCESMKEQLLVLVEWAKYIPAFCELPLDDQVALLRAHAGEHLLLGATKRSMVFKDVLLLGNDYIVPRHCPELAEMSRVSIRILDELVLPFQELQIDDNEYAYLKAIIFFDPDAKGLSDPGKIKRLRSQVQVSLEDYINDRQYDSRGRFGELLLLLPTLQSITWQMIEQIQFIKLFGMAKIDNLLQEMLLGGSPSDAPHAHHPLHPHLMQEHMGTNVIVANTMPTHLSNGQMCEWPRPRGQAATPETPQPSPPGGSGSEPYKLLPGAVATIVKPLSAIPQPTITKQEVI

Genome polyprotein = Genome polyprotein (dengue virus type 2, UniProt P29990); experiment: flavivirus cap methylation enzyme inhibition – biochemical, confirmation dose response, primary screen (AID 588689); assay type: functional
Chain of Genome polyprotein (P29990 2492-3391 limits assumed): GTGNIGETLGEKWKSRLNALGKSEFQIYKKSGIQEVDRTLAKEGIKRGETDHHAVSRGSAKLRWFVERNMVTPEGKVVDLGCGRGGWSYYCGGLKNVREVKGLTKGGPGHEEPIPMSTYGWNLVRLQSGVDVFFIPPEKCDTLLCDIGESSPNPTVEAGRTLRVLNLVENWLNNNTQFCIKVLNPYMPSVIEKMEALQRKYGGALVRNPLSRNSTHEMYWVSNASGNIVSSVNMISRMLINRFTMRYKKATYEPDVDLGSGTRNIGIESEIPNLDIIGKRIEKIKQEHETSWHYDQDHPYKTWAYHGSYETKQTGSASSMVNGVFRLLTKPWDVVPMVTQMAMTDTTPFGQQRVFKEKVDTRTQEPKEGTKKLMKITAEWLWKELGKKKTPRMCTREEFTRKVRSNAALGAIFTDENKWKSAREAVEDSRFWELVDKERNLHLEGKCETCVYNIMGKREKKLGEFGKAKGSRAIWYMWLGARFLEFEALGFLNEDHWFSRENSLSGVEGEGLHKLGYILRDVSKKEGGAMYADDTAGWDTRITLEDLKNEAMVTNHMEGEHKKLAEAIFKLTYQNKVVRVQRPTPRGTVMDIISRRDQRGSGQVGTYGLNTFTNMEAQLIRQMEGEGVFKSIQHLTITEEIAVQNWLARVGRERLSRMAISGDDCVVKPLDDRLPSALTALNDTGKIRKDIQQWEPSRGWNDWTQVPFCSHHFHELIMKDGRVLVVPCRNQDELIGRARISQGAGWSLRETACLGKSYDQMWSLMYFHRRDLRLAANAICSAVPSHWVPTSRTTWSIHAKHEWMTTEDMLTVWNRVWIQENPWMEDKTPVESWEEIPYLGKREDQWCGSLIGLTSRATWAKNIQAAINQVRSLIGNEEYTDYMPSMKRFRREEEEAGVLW

Chain of FAD-linked sulfhydryl oxidase ALR (P55789 whole entry): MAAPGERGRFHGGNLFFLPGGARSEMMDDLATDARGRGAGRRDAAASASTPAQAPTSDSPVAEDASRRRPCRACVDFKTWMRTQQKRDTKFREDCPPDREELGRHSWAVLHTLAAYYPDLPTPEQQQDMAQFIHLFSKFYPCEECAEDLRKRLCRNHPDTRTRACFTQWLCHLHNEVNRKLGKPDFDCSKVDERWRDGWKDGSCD

Compound: CCCCn1c(-c2ccco2)n[nH]c1=S
- AC50 [1]: 33.6 µM (active)
- IC50 [2]: 8.1 µM (active)

Compound: Cc1cccc(N2N=C(C(=O)N3CC(=O)Nc4ccccc43)CCC2=O)c1
- IC50 (Coagulation factor XII): > 50 µM (inactive)

Compound: Cc1c(C)n(C)c2ccc(C(=O)NCc3cccs3)cc12
- AC50 [3]: 56.8 µM (active)
- EC50 [4]: > 50 µM (active)

Compound: O=C(O)c1ccc(COc2ccccc2/C=C2\NC(=O)N(Cc3ccc(F)cc3)C2=O)cc1
- IC50 [5]: 6.42 µM (active)

Compound: O=C(c1ccc(Cl)cc1)c1cc([N+](=O)[O-])ccc1N1CCOCC1
- IC50 [6]: > 80 µM (inactive)
- EC50 (BJ [7]): 1.19 µM (inconclusive)
- EC50 [8]: 1.17 µM (active)
- EC50 (BJ [9]): 1.51 µM (active)
- EC50 (BJ [10]): 19 µM (active)
- IC50 (Protein skinhead-1): 56.9 µM (inactive)

Compound: COC(=O)C(NC(=O)c1ccco1)(Nc1nc(C)cs1)C(F)(F)F (stereo not drawn)
- IC50 (Coagulation factor XII): > 50 µM (inactive)

Compound: COc1ccccc1NC(=O)Cn1cnc2c(oc3nc4c(cc32)CCCC4)c1=O
- AC50 [3]: 77.8 µM (active)

Compound: Cc1nc(Nc2nc(O)c3c(n2)CCC3)nc2ccccc12
- EC50 [11]: > 120 µM (not active)
- IC50 [6]: > 80 µM (inactive)
- EC50 [12]: 9.61 µM (active)
- EC50 [13]: > 120 µM (not active)

Compound: CC1=C(C(=O)Nc2ccc(C)cc2)C(c2ccc(C)o2)C2=C(O)CC(C)(C)CC2=N1 (stereo not drawn)
- IC50 (Coagulation factor XII): > 50 µM (inactive)
- EC50 [14]: > 195 µM (not active)

Compound: O=C(Nc1ccccc1)N1CCN(Cc2ccc3c(c2)OCO3)CC1
- AC50 [15]: 2.63 µM (active)

Compound: CN(C)c1ccc(/C=C2/C(=O)N(CCc3ccc(F)cc3)C(=O)N=C2O)cc1
- AC50 [3]: 23.4 µM (active)

Compound: CCc1c(C)nc2ncnn2c1Nc1ccc(C#N)c(Cl)c1
- AC50 [15]: 10.5 µM (active)

Compound: COC(=O)c1ccc(Oc2nc(NC(C)C)nc(SC)n2)cc1
- IC50 (Coagulation factor XII): > 50 µM (inactive)

Compound: Cc1cccc(-c2ccc3c(c2)C2CC3CCN2)c1 (stereo not drawn)
- AC50 [15]: 4.64 µM (active)

Compound: Cc1cc(Cl)c(S(=O)(=O)NC(C(=O)O)c2ccccc2)cc1OCC(N)=O (stereo not drawn)
- IC50 [5]: 12.9 µM (active)

Compound: Oc1c(C(c2ccccc2)N2CCCCC2)ccc2ccccc12 (stereo not drawn)
- IC50 [16]: 0.828 µM (active)

Compound: O=C(NCc1ccccc1)C(c1cccc2ccccc12)n1c(=O)c(-c2ccco2)nc2ccccc21 (stereo not drawn)
- IC50 [16]: 2.77 µM (active)

Compound: CC(C)(C)NC(=O)C(c1ccnc2ccccc12)n1c(=O)c(-c2ccco2)nc2ccccc21 (stereo not drawn)
- IC50 [16]: 3.18 µM (active)

Compound: COc1ccc(/C=N/NC(=O)CCn2cnc3ccccc32)cc1
- IC50 (Coagulation factor XII): > 50 µM (inactive)

Compound: CCOc1cc(/C=N/NC2=NC(=O)C(CC(=O)O)S2)ccc1OCc1ccc(Cl)cc1 (stereo not drawn)
- IC50 [5]: 7.12 µM (active)
- IC50 (Genome polyprotein): 47.9 µM (active)

Compound: O=[N+]([O-])c1ccc(Cl)c(/C=N/n2c(S)nnc2-c2ccncc2)c1
- IC50 [2]: 4.79 µM (active)
